In one assay the test system is TFEB. Briefly: TFEB nuclear translocation assay. It counts as cell-based. Particulars: Homo sapiens; HeLa wt or HeLa TRPML1 KO cells, treated for 2 hrs; ratio of nuclear to ring-region TFEB intensity. The method in brief:
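HeLa wild-type or TRPML1 KO cells treated 2 h with compound at 37 °C, PFA-fixed, immunostained for TFEB (Alexa 488) with Hoechst nuclei. Imaged at ×20, four fields/well. Value is ratio of nuclear to perinuclear-ring TFEB intensity, with nuclei counts.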

For another assay, the system named is THP-1 cells. Briefly: Lamp1 lysosomal exocytosis assay. It counts as cell-based. As to conditions: Homo sapiens, 55 min, 55 min incubation, top dose 20 μM. As for the experimental part:
For the Lamp1 lysosomal exocytosis assay, a human monocytic suspension cell line (THP-1) was used. Cells in culture should be used between a density of […] and 1.2e6/mL on the day of the assay. For each 96-well assay plate to be used, pellet 11e6 THP-1 cells at 330×g for 5 min in a 50 mL conical tube, aspirate media and resuspend in 22 mLs of RPMI 1640/10% FBS media for a final cell concentration of 5e5/mL. Prior to addition of cells to the assay plate, perform a 7 pt dilution curve using a top dose of compound at 2 mM and use a 3-fold serial dilution, the 8th point is DMSO only. Final top dose of compound in the assay was 20 μM. 2 μL of each serial dilution was transferred to a new 96-well v-bottom assay plate. 198 μL of cells (1e5 total cells/well) was prepared as above in each well of the assay plate and incubated at 37° C./5% CO2/95% RH for 55 min. After the 55 min incubation, cells were pelleted for 5 min at 4 C at 400×g in a tabletop centrifuge. The media was separated from the cell pellets in the plate. The pellets were washed using 200 μL ice cold buffer (PBS Ca^++/Mg^++ containing 2% final BSA and 80 μM final Dynasore). Cells were pelleted again at 400×g-5 min in a 4° C. tabletop centrifuge. Buffer was separated from cells. Each well was suspended in 75 uL Lamp1-PE antibody buffer (PBS Ca^++/Mg^++ containing 2% final BSA with 80 uM final Dynasore and 1:800 final dilution of Lamp 1-PE labeled antibody). After a 45 min antibody incubation on ice, 25 μL of sytox green was added (I drop/mL buffer), and each well was mixed and incubated for an additional 15 min on ice. After the 15 min sytox green incubation, 100 μL of ice-cold buffer (PBS Ca^++/Mg^++ containing 2% final BSA and 80 uM final Dynasore) was added and cells were pelleted for 5 min at 400×g. The buffer was removed and each sample was resuspended in 100 uL of ice-cold buffer (PBS Ca^++/Mg^++ containing 2% final BSA and 80 μM final Dynasore). FACs gating strategy: FACS analyze for sytox green (A488) and Lamp1-PE (DsRed). First gate against FSC-A/SSC-A to find non-fragmented or ‘live’ THP-1 cells. Next gate against FITC-A/FSC-A to omit sytox green positive cells. Then gate for FSC-A/FSC-H to remove any doublet cells. The last gate was a histogram for PE. The statistics for ‘count’ and ‘geometric mean fluorescence intensity’ (gWFI) for PE were repoted on the last gate.
Compounds having an activity designated as “++++” provided an exocytosis readout of ≤0.50 μM; compounds having an activity designated as “+++” provided an exocytosis readout of 0.51-1.00 μM; compounds having an activity designated as “++” provided an exocytosis readout of 1.01-5.00 μM; and compounds having an activity designated as “+” provided an exocytosis readout of ≥5.01 μM

In general, EC50 refers to the concentration that produces a half-maximal response.

Molecules are shown by their SMILES.

Regarding `O=S(=O)(Cc1ccccc1)N1CC2(CCN(CC(F)(F)F)C2)c2ccccc21` (centres unmarked) [Compound I-120], the EC50 in the assay with TFEB was in the range of 2.01 to 8 µM.

As for `O=S(=O)(Cc1ccccc1)N1CC2(CCCCC2)c2ccccc21` [Compound I-121, 1′-(benzylsulfonyl)spiro[cyclohexane-1,3′-indoline]], the EC50 with TFEB was at most 2 µM.

As for `Cc1cc2n(n1)C1(CCCCC1)CN2S(=O)(=O)c1ccc(S(=O)(=O)N(C)C)cc1` [Compound I-123, N,N-dimethyl-4-({6′-methyl-1′,2′-dihydrospiro[cyclohexane-1,3′-pyrazolo[1,5-a]imidazol]-1′-yl}sulfonyl)benzene-1-sulfonamide], the EC50 in the assay on TFEB was 2.01 to 8 µM.

Turning to `CN(C)S(=O)(=O)c1ccc(S(=O)(=O)N2CC3(CCCCC3)n3nccc32)cc1` [Compound I-125, 4-({1′,2′-dihydrospiro[cyclohexane-1,3′-pyrazolo[1,5-a]imidazol]-1′-yl}sulfonyl)-N,N-dimethylbenzene-1-sulfonamide], the 50% effective concentration (EC50) with TFEB is at least 10 µM.

Regarding `CN(C)S(=O)(=O)c1ccc(S(=O)(=O)N2CCC3(CCCCC3)c3ccccc32)cc1` [Compound I-128, 4-({2′,3′-dihydro-1′H-spiro[cyclohexane-1,4′-quinolin]-1′-yl}sulfonyl)-N,N-dimethylbenzene-1-sulfonamide], in the assay on TFEB, the EC50 is at most 2 µM.

Regarding `O=C(OCc1ccccc1)N1CCC2(CC1)CN(S(=O)(=O)c1ccc(C(F)F)cc1)c1cnccc12` [Compound I-135, benzyl 1′-[4-(difluoromethyl)benzenesulfonyl]-1′,2′-dihydrospiro[piperidine-4,3′-pyrrolo[2,3-c]pyridine]-1-carboxylate], the EC50 with THP-1 cells is at most 0.5 µM.

The compound `O=C(N1CCCC1)N1CCC2(CC1)CN(S(=O)(=O)c1ccc(C(F)F)cc1)c1ccccc12` [Compound I-136, (1-((4-(difluoromethyl)phenyl)sulfonyl)spiro[indoline-3,4′-piperidin]-1′-yl)(pyrrolidin-1-yl)methanone] yielded an EC50 in the assay on THP-1 cells of at least 5.01 µM.

`O=S(=O)(c1ccc(C(F)F)cc1)N1CC2(CCC(F)(F)CC2)c2ccccc21` [Compound I-138, 1′-[4-(difluoromethyl)benzenesulfonyl]-4,4-difluoro-1′,2′-dihydrospiro[cyclohexane-1,3′-indole]] came in with a half-maximal effective concentration (EC50) in the assay on THP-1 cells of at least 5.01 µM.

In the assay on THP-1 cells, `O=C(OCc1ccccn1)N1CCC2(CC1)CN(S(=O)(=O)c1ccc(C(F)F)cc1)c1ccccc12` [Compound I-141, pyridin-2-ylmethyl 1-((4-(difluoromethyl)phenyl)sulfonyl)spiro[indoline-3,4′-piperidine]-1′-carboxylate] returned an EC50 of 1.01 to 5 µM.

Turning to `O=C(NC1CC1)N1CCC2(CC1)CN(S(=O)(=O)c1ccc(C(F)F)cc1)c1ccccc12` [Compound I-142, N-cyclopropyl-1-[4-(difluoromethyl)benzenesulfonyl]-1,2-dihydrospiro[indole-3,4′-piperidine]-1′-carboxamide], the EC50 in the assay on THP-1 cells is at least 5.01 µM.

Consider `O=C(NCc1ccccc1)C1CCC2(CC1)CN(S(=O)(=O)c1ccc(C(F)F)cc1)c1ccccc12` (centres unmarked) [Compound I-143, N-benzyl-1′-((4-(difluoromethyl)phenyl)sulfonyl)spiro[cyclohexane-1,3′-indoline]-4-carboxamide], for which, in the assay on THP-1 cells, the EC50 was at least 5.01 µM.

As for `CN(C)S(=O)(=O)c1ccc(S(=O)(=O)N2CC3(CCN(CC(F)(F)F)CC3)n3nccc32)cc1` [Compound I-144, N,N-dimethyl-4-{[1-(2,2,2-trifluoroethyl)-1′,2′-dihydrospiro[piperidine-4,3′-pyrazolo[1,5-a]imidazol]-1′-yl]sulfonyl}benzene-1-sulfonamide], the EC50 with TFEB was at least 10 µM.

In the case of `Cc1cc2n(n1)C1(CCCCC1)CN2S(=O)(=O)c1ccc(S(=N)(=O)N(C)C)cc1` (centres unmarked) [Compound I-146, N,N-dimethyl-4-({6′-methyl-1′,2′-dihydrospiro[cyclohexane-1,3′-pyrazolo[1,5-a]imidazol]-1′-yl}sulfonyl)benzene-1-sulfonoimidamide], in the assay on TFEB, the EC50 is at least 10 µM.

On to `Cc1cc2n(n1)C1(CCCCC1)CN2S(=O)(=O)c1ccc2c(c1)C(C)(C)CO2` [Compound I-147, 1′-[(3,3-dimethyl-2,3-dihydro-1-benzofuran-5-yl)sulfonyl]-6′-methyl-1′,2′-dihydrospiro[cyclohexane-1,3′-pyrazolo[1,5-a]imidazole]], for which the EC50 with TFEB was at least 10 µM.

With `CC(c1ccc(S(=O)(=O)N(C)C)cc1)N1CC2(CCCCC2)c2ccccc21` (centres unmarked) [Compound I-150, 4-(1-{1′,2′-dihydrospiro[cyclohexane-1,3′-indol]-1′-yl}ethyl)-N,N-dimethylbenzene-1-sulfonamide], the EC50 in the assay with TFEB was at least 10 µM.

For the compound `N=S(=O)(c1ccc(S(=O)(=O)N2CC3(CCCCC3)c3ccccc32)cc1)C1CC1` (centres unmarked) [Compound I-151, 1′-((4-(cyclopropanesulfonimidoyl)phenyl)sulfonyl)spiro[cyclohexane-1,3′-indoline]], in the assay with TFEB, the EC50 was at least 10 µM.

In turn, `O=S1(=O)CCC2(CC1)CN(S(=O)(=O)c1ccc(C(F)F)cc1)c1ccccc12` [Compound I-152, 1-((4-(difluoromethyl)phenyl)sulfonyl)-2′,3′,5′,6′-tetrahydrospiro[indoline-3,4′-thiopyran] 1′,1′-dioxide] showed an EC50 in the assay on THP-1 cells of at least 5.01 µM.

`CN(C)S(=O)(=O)c1ccc(S(=O)(=O)N2CC3(CCCCC3)n3nc(C(F)(F)F)cc32)cc1` [Compound I-153, N,N-dimethyl-4-{[6′-(trifluoromethyl)-1′,2′-dihydrospiro[cyclohexane-1,3′-pyrazolo[1,5-a]imidazol]-1′-yl]sulfonyl}benzene-1-sulfonamide]: in the assay on TFEB, the EC50 is at most 2 µM.

`CN(C)S(=O)(=O)c1ccc(S(=O)(=O)N2CC3(CCN(Cc4ccccc4)CC3)c3c(F)cccc32)cc1` [Compound I-155, 4-((1′-benzyl-4-fluorospiro[indoline-3,4′-piperidin]-1-yl)sulfonyl)-N,N-dimethylbenzenesulfonamide] gave an EC50 in the assay on THP-1 cells of at most 0.5 µM.

For the compound `O=C(OCc1ccncc1)N1CCC2(CC1)CN(S(=O)(=O)c1ccc(C(F)F)cc1)c1ccccc12` [Compound I-159, pyridin-4-ylmethyl 1-((4-(difluoromethyl)phenyl)sulfonyl)spiro[indoline-3,4′-piperidine]-1′-carboxylate], the EC50 in the assay on THP-1 cells was at least 5.01 µM.

On to `CCn1cc(COC(=O)N2CCC3(CC2)CN(S(=O)(=O)c2ccc(C(F)F)cc2)c2ccccc23)cn1` [Compound I-171], for which the EC50 with THP-1 cells was 0.51 to 1 µM.

The compound `Cn1cnc(COC(=O)N2CCC3(CC2)CN(S(=O)(=O)c2ccc(C(F)F)cc2)c2ccccc23)c1` [Compound I-172, (1-methyl-1H-imidazol-4-yl)methyl 1-((4-(difluoromethyl)phenyl)sulfonyl)spiro[indoline-3,4′-piperidine]-1′-carboxylate] registered an EC50 with THP-1 cells of at least 5.01 µM.

`O=C(OCc1cnoc1)N1CCC2(CC1)CN(S(=O)(=O)c1ccc(C(F)F)cc1)c1ccccc12` [Compound I-173, isoxazol-4-ylmethyl 1-((4-(difluoromethyl)phenyl)sulfonyl)spiro[indoline-3,4′-piperidine]-1′-carboxylate]: the EC50 with THP-1 cells is 1.01 to 5 µM.

For `O=C(Cc1ccccc1)N1CCC2(CC1)CN(S(=O)(=O)c1ccc(C(F)F)cc1)c1ccccc12` [Compound I-175, 1-(1-((4-(difluoromethyl)phenyl)sulfonyl)spiro[indoline-3,4′-piperidin]-1′-yl)-2-phenylethan-1-one], the EC50 in the assay with THP-1 cells was at least 5.01 µM.

With `Cn1cc(COC(=O)N2CCC3(CC2)CN(S(=O)(=O)c2ccc(C(F)F)cc2)c2ccccc23)cn1` [Compound I-176], in the assay with THP-1 cells, the EC50 is 1.01 to 5 µM.

In the case of `CN(C)S(=O)(=O)c1ccc(S(=O)(=O)N2CC3(CCCCC3)n3nc(C4CC4)cc32)cc1` [Compound I-257, 4-({6′-cyclopropyl-1′,2′-dihydrospiro[cyclohexane-1,3′-pyrazolo[1,5-a]imidazol]-1′-yl}sulfony1)-N,N-dimethylbenzene-1-sulfonamide], the EC50 in the assay with TFEB is at most 2 µM.
